Source: ChEMBL document CHEMBL5154882, “Discovery of 4-Hydroxyquinazoline Derivatives as Small Molecular BET/PARP1 Inhibitors That Induce Defective Homologous Recombination and Lead to Synthetic Lethality for Triple-Negative Breast Cancer Therapy” (J Med Chem, 2022)

How the values were obtained:
[1] = biological target: Poly [ADP-ribose] polymerase 1 (Homo sapiens, UniProt P09874); assay: Inhibition of PARP1 (unknown origin) at 1 uM relative to control
[2] = test system: MDA-MB-231; assay: Antiproliferative activity against human MDA-MB-231 cells assessed as reduction in cell viability incubated for 72 hrs by MTT assay; assay type: functional, cell-based; conditions: MDA-MB-231, 72 h
[3] = test system: MDA-MB-468; assay: Antiproliferative activity against human MDA-MB-468 cells assessed as reduction in cell viability incubated for 72 hrs by MTT assay; assay type: functional, cell-based; conditions: MDA-MB-468, 72 h
[4] = biological target: Bromodomain-containing protein 4 (Homo sapiens, UniProt O60885); assay: Inhibition of BRD4 (unknown origin) at 1 uM relative to control

Chain of Poly [ADP-ribose] polymerase 1 (P09874 whole entry): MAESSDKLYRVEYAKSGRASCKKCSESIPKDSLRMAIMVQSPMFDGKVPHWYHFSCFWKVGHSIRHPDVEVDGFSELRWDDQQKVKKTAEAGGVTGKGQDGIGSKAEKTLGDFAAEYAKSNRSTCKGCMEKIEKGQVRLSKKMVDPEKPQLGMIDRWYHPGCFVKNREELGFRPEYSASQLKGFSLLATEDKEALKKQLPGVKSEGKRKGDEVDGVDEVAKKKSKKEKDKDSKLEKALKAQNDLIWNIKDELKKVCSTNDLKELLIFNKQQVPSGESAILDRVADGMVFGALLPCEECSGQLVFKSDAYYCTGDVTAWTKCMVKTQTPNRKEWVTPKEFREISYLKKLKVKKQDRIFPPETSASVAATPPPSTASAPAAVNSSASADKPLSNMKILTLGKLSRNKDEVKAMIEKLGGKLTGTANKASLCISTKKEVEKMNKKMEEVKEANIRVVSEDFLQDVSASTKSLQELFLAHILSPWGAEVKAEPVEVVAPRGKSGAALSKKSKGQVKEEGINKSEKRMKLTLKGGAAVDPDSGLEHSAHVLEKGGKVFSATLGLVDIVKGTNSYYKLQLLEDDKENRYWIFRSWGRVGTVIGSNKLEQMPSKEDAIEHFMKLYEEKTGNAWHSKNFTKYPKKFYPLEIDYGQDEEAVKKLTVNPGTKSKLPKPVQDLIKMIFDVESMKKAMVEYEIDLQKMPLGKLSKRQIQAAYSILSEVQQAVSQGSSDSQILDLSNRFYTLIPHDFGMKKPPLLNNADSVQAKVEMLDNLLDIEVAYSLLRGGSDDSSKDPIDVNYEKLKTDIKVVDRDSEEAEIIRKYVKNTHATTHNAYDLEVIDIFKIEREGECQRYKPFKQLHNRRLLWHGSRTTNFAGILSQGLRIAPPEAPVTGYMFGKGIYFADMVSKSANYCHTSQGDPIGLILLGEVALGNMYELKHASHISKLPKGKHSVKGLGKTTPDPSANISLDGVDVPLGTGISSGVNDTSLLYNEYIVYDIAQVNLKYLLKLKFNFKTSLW

| Structure (SMILES) | inhibition [1] | IC50 [2] | IC50 [3] | inhibition [4] |
| --- | --- | --- | --- | --- |
| COc1cc(-c2nc3cccc(C)c3c(=O)[nH]2)ccc1Cc1n[nH]c(=O)c2ccccc12 | 37.2% | > 40 µM | > 40 µM | 34.4% |
| O=c1[nH]c(-c2ccc(Cc3n[nH]c(=O)c4ccccc34)cc2)nc2ccccc12 | 63.8% | 25 µM | 25.4 µM | 33% |
| COc1ccc2nc(-c3ccc(Cc4n[nH]c(=O)c5ccccc45)cc3)[nH]c(=O)c2c1 | 57.4% | 19.1 µM | 16 µM | 45.5% |
| O=c1[nH]c(-c2ccc(Cc3n[nH]c(=O)c4ccccc34)c(F)c2)nc2ccccc12 | 47.2% | 31.5 µM | 29.7 µM | 35.1% |
| COc1cc(OC)c2c(=O)[nH]c(-c3cccc(Cc4n[nH]c(=O)c5ccc(Cl)cc45)c3)nc2c1 | 43.2% | 15.5 µM | 12.8 µM | 72.2% |
| O=c1[nH]c(-c2ccc(Cc3n[nH]c(=O)c4ccccc34)cc2)nc2ccc(Br)cc12 | 53.3% | 24.5 µM | 18.8 µM | 46% |
| O=c1[nH]nc(Cc2ccc(F)c(-c3nc4cccc(Cl)c4c(=O)[nH]3)c2)c2ccccc12 | 72.8% | 23.3 µM | 21.6 µM | 40.9% |
| COc1ccc2nc(-c3ccc(Cc4n[nH]c(=O)c5ccccc45)c(F)c3)[nH]c(=O)c2c1 | 39.4% | 25.2 µM | 19.4 µM | 51.5% |
| COc1cc(-c2nc3ccccc3c(=O)[nH]2)ccc1Cc1n[nH]c(=O)c2ccccc12 | 46.5% | > 40 µM | > 40 µM | 31.3% |
| Cc1cccc2c(=O)[nH]c(-c3cc(Cc4n[nH]c(=O)c5ccccc45)ccc3F)nc12 | 61% | 38.2 µM | 35.6 µM | 31.2% |
| O=c1[nH]c(-c2cc(Cc3n[nH]c(=O)c4ccccc34)ccc2F)nc2ccc(Br)cc12 | 76.8% | 24.1 µM | 19.5 µM | 39.5% |
| O=c1[nH]c(-c2ccc(Cc3n[nH]c(=O)c4ccccc34)c(F)c2)nc2ccc(F)cc12 | 38.2% | 22 µM | 17.2 µM | 53.3% |
| COc1cc(-c2nc3ccc(F)cc3c(=O)[nH]2)ccc1Cc1n[nH]c(=O)c2ccccc12 | 36.1% | 26 µM | 31.4 µM | 41.5% |
| COc1cc(OC)c2c(=O)[nH]c(-c3cc(F)cc(Cc4n[nH]c(=O)c5ccccc45)c3)nc2c1 | 82.8% | 9.87 µM | 7.49 µM | 63.4% |
| O=c1[nH]c(-c2cccc(Cc3n[nH]c(=O)c4ccccc34)c2)nc2ccc(F)cc12 | 74.7% | 9.15 µM | 6.3 µM | 64.8% |
| COc1cc(OC)c2c(=O)[nH]c(-c3ccc(Cc4n[nH]c(=O)c5ccccc45)cc3)nc2c1 | 59.2% | 17 µM | 14.1 µM | 58.2% |
| O=c1[nH]c(-c2cc(Cc3n[nH]c(=O)c4ccccc34)ccc2F)nc2ccccc12 | 59.6% | 31.7 µM | 29.2 µM | 31.6% |
| COc1ccc2nc(-c3cc(F)cc(Cc4n[nH]c(=O)c5ccccc45)c3)[nH]c(=O)c2c1 | 72.1% | 15.3 µM | 12.3 µM | 51.3% |
| COc1cc(OC)c2c(=O)[nH]c(-c3ccc(Cc4n[nH]c(=O)c5ccccc45)c(F)c3)nc2c1 | 35.9% | 28.3 µM | 25.5 µM | 63.5% |
| Cc1cccc2nc(-c3ccc(Cc4n[nH]c(=O)c5ccccc45)cc3)[nH]c(=O)c12 | 52.6% | 28.9 µM | 24.1 µM | 31.7% |

| Structure (SMILES) | inhibition [1] | IC50 [2] | IC50 [3] | inhibition [4] |
| --- | --- | --- | --- | --- |
| O=c1[nH]c(-c2ccc(Cc3n[nH]c(=O)c4ccccc34)cc2)nc2ccc(Cl)cc12 | 52.3% | 17.1 µM | 17 µM | 49.3% |
| Cc1cccc2nc(-c3cccc(Cc4n[nH]c(=O)c5ccccc45)c3)[nH]c(=O)c12 | 76.3% | 24.6 µM | 15.4 µM | 49.6% |
| COc1ccc2nc(-c3ccc(Cc4n[nH]c(=O)c5ccccc45)c(OC)c3)[nH]c(=O)c2c1 | 36.7% | 33.6 µM | 28.3 µM | 45.2% |
| Cc1cccc2nc(-c3cc(F)cc(Cc4n[nH]c(=O)c5ccccc45)c3)[nH]c(=O)c12 | 76.4% | 15.4 µM | 15.4 µM | 47.8% |
| Cc1cc(-c2nc3cccc(C)c3c(=O)[nH]2)ccc1Cc1n[nH]c(=O)c2ccccc12 | 47.6% | > 40 µM | 29.6 µM | 36.8% |
| COc1cc(-c2nc3cccc(Cl)c3c(=O)[nH]2)ccc1Cc1n[nH]c(=O)c2ccccc12 | 33.9% | 35.1 µM | 34.7 µM | 43.3% |
| COc1cc(OC)c2c(=O)[nH]c(-c3ccc(Cc4n[nH]c(=O)c5ccccc45)c(OC)c3)nc2c1 | 35.3% | 27.7 µM | 25.3 µM | 51% |
| COc1cc(-c2nc3ccc(Cl)cc3c(=O)[nH]2)ccc1Cc1n[nH]c(=O)c2ccccc12 | 37.1% | 30.6 µM | 35.6 µM | 45.8% |
| COc1ccc2nc(-c3cccc(Cc4n[nH]c(=O)c5ccccc45)c3)[nH]c(=O)c2c1 | 78.4% | 8.71 µM | 5.43 µM | 61.2% |
| O=c1[nH]c(-c2cccc(Cc3n[nH]c(=O)c4ccccc34)c2)nc2ccccc12 | 82.4% | 21.3 µM | 16.2 µM | 47.2% |
| O=c1[nH]c(-c2cc(Cc3n[nH]c(=O)c4ccccc34)ccc2F)nc2ccc(F)cc12 | 68.5% | 18.6 µM | 19.1 µM | 43.7% |
| COc1ccc2nc(-c3cc(Cc4n[nH]c(=O)c5ccccc45)ccc3F)[nH]c(=O)c2c1 | 70.7% | 22.8 µM | 24.2 µM | 41% |
| O=c1[nH]nc(Cc2cc(F)cc(-c3nc4cccc(Cl)c4c(=O)[nH]3)c2)c2ccccc12 | 75.1% | 13.4 µM | 14.7 µM | 52.8% |
| O=c1[nH]c(-c2cc(F)cc(Cc3n[nH]c(=O)c4ccccc34)c2)nc2ccc(F)cc12 | 77.5% | 13.2 µM | 12.1 µM | 51.2% |
| O=c1[nH]c(-c2cc(Cc3n[nH]c(=O)c4ccccc34)ccc2F)nc2ccc(Cl)cc12 | 68.6% | 21.1 µM | 20.8 µM | 42.6% |
| O=c1[nH]nc(Cc2ccc(-c3nc4cccc(Cl)c4c(=O)[nH]3)cc2)c2ccccc12 | 58.5% | 21 µM | 15.4 µM | 48.9% |
| Cc1cc(-c2nc3ccccc3c(=O)[nH]2)ccc1Cc1n[nH]c(=O)c2ccccc12 | 46.3% | 36 µM | 28.2 µM | 42.1% |
| COc1cc(OC)c2nc(-c3ccc(Cc4n[nH]c(=O)c5ccccc45)c(C)c3)[nH]c(=O)c2c1 | 55% | 17.9 µM | 13 µM | 67.8% |
| O=c1[nH]nc(Cc2ccc(-c3nc4cccc(Cl)c4c(=O)[nH]3)cc2F)c2ccccc12 | 38.5% | 22 µM | 21.2 µM | 53.4% |
| COc1cc(OC)c2nc(-c3cc(Cc4n[nH]c(=O)c5ccccc45)ccc3F)[nH]c(=O)c2c1 | 72% | 22.1 µM | 18.6 µM | 47.5% |
